Measurements published in patent publication US20010000177A1, “Novel class of thiomorpholino substituted thiazoles” (priority 1999, published 2001).
Converted amounts (≈) assume the structure as drawn.

What was measured:
[1] = tested on: Candida and Cryptococcus strains (organism not given); assay: Broth microdilution antifungal activity, Table II first MIC/MCC column pair; type: cell-based; details: first column pair of Table II; for MIC = Minimum inhibitory concentration (50% Inhibition): 48 hrs, 35° C., YNB broth pH 7.0; for MCC = Minimum cytolytic concentration: subculture on SDA plate
Experimental: (§1) Organisms: Three strains of Candida (Candida parpsilosis, Candida tropicalis, Candida albicans-ATCC 36082) as well as Cryptococcus neoformans were used for the initial testing. […] All clinical strains used in this study were blood culture isolates from the Clinical Microbiology Laboratory of Harbor-UCLA Medical Center, Torrance, Calif. The organisms were maintained on Sabourahd Dextrose Agar slants at 4° C. For experimentation, singlet suspensions of each organism were prepared by growing the yeast overnight at 27° C. on a rotating drum in yeast-nitrogen base broth (YNB) with amino acids (Difco, Detroit, Mich.), pH 7.0 with 0.05M morpholinepropanesulfonic acid (MOPS). The suspension was then centrifuged and washed twice with 0.85% NaCl. This was followed by sonication of the washed cell suspension for 4s (Branson Sonifier, model 350, Danbury, Conn.). The singlet blastospores were counted in a hemocytometer and adjusted to the desired concentration in 0.85% NaCl.
(§2) Antifungal Activity: The antifungal activity of the compounds and Fluconazole against the Candida and Cryptococcus strains were determined using a modification of a broth microdilution technique. Test compounds were diluted in DMSO to a 1.0 mg/ml ratio then diluted to 64 μg/ml in YNB broth, pH 7.0 with MOPS (Fluconazole was used as the control). This was to provide a working solution of each compound. Using a 96-well plate, wells 1 and 3 through 12 were prepared with YNB broth, […] dilutions of the compound solution were made in wells 2 through 11 (concentration ranges were 64 to 0.125 μg/ml). Well one served as a sterility control and blank for the spectrophotometric assays. Well twelve served as a growth control. The microtiter plates were inoculated with 10 ul in each of well 2 through 11 (final inoculum size was 10^4 organisms/ml). Inoculated plates were incubated for 48 hrs., at 35° C. The MIC values were determined spectrophotometrically by measuring the absorbance at 420 nm (Automatic Microplate Reader, DuPont Instruments, Wilmington, Del.) after agitation of the plates for 2 min with a vortex-mixer (Vorte-Genie 2 Mixer, Scientific Industries, Inc., Bolemia, N.Y.). […] With the turbidity assay this was defined as the lowest drug concentration at which turbidity in the well was <50% of the control (IC50) Minimal Cytolytic Concentrations (MCC) were determined by subculturing all wells from the 96-well plate onto a Sabourahd Dextrose Agar (SDA) plate and incubated for 1 to 2 days at 35° C. and the viability was checked.

[2] = tested on: Candida and Cryptococcus strains (organism not given); assay: Broth microdilution antifungal activity, Table II second MIC/MCC column pair; type: cell-based; details: second column pair of Table II; for MIC = Minimum inhibitory concentration (50% Inhibition): 48 hrs, 35° C., YNB broth pH 7.0; for MCC = Minimum cytolytic concentration: subculture on SDA plate
Experimental: (§3) Organisms: Three strains of Candida (Candida parpsilosis, Candida tropicalis, Candida albicans-ATCC 36082) as well as Cryptococcus neoformans were used for the initial testing. Active compounds were then tested against fluconazole resistant Candida albicans, Candida krusei, Torulopsis glabrata, and Cryptococcus neoformans along with Sporothrix shenkii and Aspergillus flavus in the secondary round of testing. All clinical strains used in this study were blood culture isolates from the Clinical Microbiology Laboratory of Harbor-UCLA Medical Center, Torrance, Calif. The organisms were maintained on Sabourahd Dextrose Agar slants at 4° C. For experimentation, singlet suspensions of each organism were prepared by growing the yeast overnight at 27° C. on a rotating drum in yeast-nitrogen base broth (YNB) with amino acids (Difco, Detroit, Mich.), pH 7.0 with 0.05M morpholinepropanesulfonic acid (MOPS). The suspension was then centrifuged and washed twice with 0.85% NaCl. This was followed by sonication of the washed cell suspension for 4s (Branson Sonifier, model 350, Danbury, Conn.). The singlet blastospores were counted in a hemocytometer and adjusted to the desired concentration in 0.85% NaCl.
as §2

[3] = tested on: Candida and Cryptococcus strains (organism not given); assay: Broth microdilution antifungal activity, Table II third MIC/MCC column pair; type: cell-based; details: for MIC = Minimum inhibitory concentration (50% Inhibition): 48 hrs, 35° C., YNB broth pH 7.0; for MCC = Minimum cytolytic concentration: subculture on SDA plate
Experimental: as §3, §2

[4] = tested on: Candida and Cryptococcus strains (organism not given); assay: Broth microdilution antifungal activity, Table II fourth MIC/MCC column pair; type: cell-based; details: fourth column pair of Table II; for MIC = Minimum inhibitory concentration (50% Inhibition): 48 hrs, 35° C., YNB broth pH 7.0; for MCC = Minimum cytolytic concentration: subculture on SDA plate
Experimental: as §1, §2

Candida albican = details: Antimicrob. Agents Chemother., (1980), 18(2), 231-9; cited from earlier work

| Compound | MIC = Minimum inhibitory concentration (50% Inhibition) [1] [µg/mL] | MCC = Minimum cytolytic concentration [1] [µg/mL] | MIC = Minimum inhibitory concentration (50% Inhibition) [2] [µg/mL] | MCC = Minimum cytolytic concentration [2] [µg/mL] | MIC = Minimum inhibitory concentration (50% Inhibition) [3] [µg/mL] | MCC = Minimum cytolytic concentration [3] [µg/mL] | MIC = Minimum inhibitory concentration (50% Inhibition) [4] [µg/mL] | MCC = Minimum cytolytic concentration [4] [µg/mL] | MIC50 (Candida albican) [µg/mL] |
| --- | --- | --- | --- | --- | --- | --- | --- | --- | --- |
| C=CCN(C)Cc1ccc(-c2csc(-c3ccc(Cl)cc3)n2)cc1 [Example 1g, 2-(4′-chlorophenyl)-4-[4″-(N-methyl-N-allylaminomethyl)phenyl]thiazole] | 2 (≈ 5.64 µM) | 8 | 4 (≈ 11.3 µM) | 8 | 2 (≈ 5.64 µM) | 8 | 2 (≈ 5.64 µM) | 8 | – |
| N=C(N)c1ccc(-c2nnc(-c3ccc(C(=N)N)cc3)o2)cc1 | – | – | – | – | – | – | – | – | > 60 |
| C=CCN(C)Cc1ccc(-c2csc(-c3ccc(OC)c([N+](=O)[O-])c3)n2)cc1 [Example 1kk, 2-(4′-methoxy-3′-nitrophenyl)-4-[4″-(N-methyl-N-allylamino-methyl)phenyl]thiazole] | 1 (≈ 2.53 µM) | 2 | 0.25 (≈ 0.632 µM) | 1 | 1 (≈ 2.53 µM) | 2 | 0.5 (≈ 1.26 µM) | 2 | – |
| CCCN(C)Cc1ccc(-c2csc(-c3ccc(C)c([N+](=O)[O-])c3)n2)cc1 [Example 6p, 2-(4′-methyl-3′-nitrophenyl)-4-[4″-(N-methyl-N-propylaminomethyl)-phenyl]thiazole] | 1 (≈ 2.62 µM) | 8 | 1 (≈ 2.62 µM) | 4 | 2 (≈ 5.24 µM) | 16 | 1 (≈ 2.62 µM) | 4 | – |
| CN(C)CCSCc1ccc(-c2csc(-c3ccc(Cl)cc3)n2)cc1 [Example 1rr, 2-(4′-chlorophenyl)-4-[4″-[(2-dimethylaminoethyl-thio)methyl]phenyl]thiazole] | 4 (≈ 10.3 µM) | 8 | 4 (≈ 10.3 µM) | 8 | 4 (≈ 10.3 µM) | 8 | 4 (≈ 10.3 µM) | 8 | – |
| CCCN(C)Cc1ccc(-c2csc(-c3ccc(OC)c([N+](=O)[O-])c3)n2)cc1 [Example 6k, 2-(4′-methoxy-3′-nitrophenyl)-4-[4″-(N-methyl-N-propylamino-methyl)phenyl]thiazole] | 1 (≈ 2.52 µM) | 2 | 0.5 (≈ 1.26 µM) | 2 | 1 (≈ 2.52 µM) | 2 | 1 (≈ 2.52 µM) | 1 | – |
| CN(C)Cc1ccc(-c2csc(-c3ccc([N+](=O)[O-])cc3)n2)cc1 [Example 1x, 2-(4′-nitrophenyl)-4-[4″-(dimethylaminomethyl)phenyl]thiazole] | 1 (≈ 2.95 µM) | 2 | 1 (≈ 2.95 µM) | 2 | 1 (≈ 2.95 µM) | 2 | 2 (≈ 5.89 µM) | 2 | – |
| CN(C)Cc1ccc(-c2csc(-c3cccc(C#N)c3)n2)cc1 [Example 6o, 2-(3′-cyanophenyl)-4-[4″-(dimethylaminomethyl)phenyl]thiazole] | 2 (≈ 6.26 µM) | 4 | 2 (≈ 6.26 µM) | 8 | 2 (≈ 6.26 µM) | >64 | 8 (≈ 25 µM) | 16 | – |
